Article PMC8550792, “Evolution of kinase polypharmacology across HSP90 drug discovery” (Cell Chemical Biology, 2021)

How the values were obtained:
Assay in all cases: biochemical
Assay type in all cases: biochemical
382 unique human kinases [1] = target: T1, 382 unique human kinases (Homo sapiens, UniProt P15056, V600A); conditions: BRAF (V600A), compound at 10 uM, duplicate values; for remaining activity at 10 µM: read-out: % Enzyme Activity (relative to DMSO controls)
T1 construct: purchased Reaction Biology (HotSpot contract assay)
T1 sequence (P15056 whole entry V600A): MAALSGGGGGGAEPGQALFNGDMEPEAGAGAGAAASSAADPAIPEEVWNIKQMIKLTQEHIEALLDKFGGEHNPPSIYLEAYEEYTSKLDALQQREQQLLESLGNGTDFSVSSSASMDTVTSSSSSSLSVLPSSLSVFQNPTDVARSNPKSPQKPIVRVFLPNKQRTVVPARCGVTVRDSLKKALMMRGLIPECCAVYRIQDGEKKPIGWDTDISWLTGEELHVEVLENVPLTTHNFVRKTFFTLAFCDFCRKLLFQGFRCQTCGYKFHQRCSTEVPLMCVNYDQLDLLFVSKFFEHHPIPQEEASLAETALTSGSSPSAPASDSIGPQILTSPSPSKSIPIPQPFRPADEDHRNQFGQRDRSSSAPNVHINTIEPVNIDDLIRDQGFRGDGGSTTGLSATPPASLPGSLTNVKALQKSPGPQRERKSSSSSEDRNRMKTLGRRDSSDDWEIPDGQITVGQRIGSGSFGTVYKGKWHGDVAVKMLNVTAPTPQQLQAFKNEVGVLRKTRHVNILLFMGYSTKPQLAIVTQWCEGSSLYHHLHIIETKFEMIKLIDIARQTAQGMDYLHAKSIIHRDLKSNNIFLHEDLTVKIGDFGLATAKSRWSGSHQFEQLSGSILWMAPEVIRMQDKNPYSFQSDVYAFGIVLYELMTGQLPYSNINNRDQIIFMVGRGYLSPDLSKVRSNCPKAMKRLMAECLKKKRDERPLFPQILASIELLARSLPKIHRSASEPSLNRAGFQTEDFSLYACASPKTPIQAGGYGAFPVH

382 unique human kinases [2] = target: T2, 382 unique human kinases (Homo sapiens, UniProt Q56UN5); conditions: kinase YSK4/MAP3K19, compound 10 uM; for remaining activity at 10 µM: read-out: % Enzyme Activity (relative to DMSO controls)
T2 construct: purchased Reaction Biology (HotSpot contract assay)
T2 sequence (Q56UN5 1-1328): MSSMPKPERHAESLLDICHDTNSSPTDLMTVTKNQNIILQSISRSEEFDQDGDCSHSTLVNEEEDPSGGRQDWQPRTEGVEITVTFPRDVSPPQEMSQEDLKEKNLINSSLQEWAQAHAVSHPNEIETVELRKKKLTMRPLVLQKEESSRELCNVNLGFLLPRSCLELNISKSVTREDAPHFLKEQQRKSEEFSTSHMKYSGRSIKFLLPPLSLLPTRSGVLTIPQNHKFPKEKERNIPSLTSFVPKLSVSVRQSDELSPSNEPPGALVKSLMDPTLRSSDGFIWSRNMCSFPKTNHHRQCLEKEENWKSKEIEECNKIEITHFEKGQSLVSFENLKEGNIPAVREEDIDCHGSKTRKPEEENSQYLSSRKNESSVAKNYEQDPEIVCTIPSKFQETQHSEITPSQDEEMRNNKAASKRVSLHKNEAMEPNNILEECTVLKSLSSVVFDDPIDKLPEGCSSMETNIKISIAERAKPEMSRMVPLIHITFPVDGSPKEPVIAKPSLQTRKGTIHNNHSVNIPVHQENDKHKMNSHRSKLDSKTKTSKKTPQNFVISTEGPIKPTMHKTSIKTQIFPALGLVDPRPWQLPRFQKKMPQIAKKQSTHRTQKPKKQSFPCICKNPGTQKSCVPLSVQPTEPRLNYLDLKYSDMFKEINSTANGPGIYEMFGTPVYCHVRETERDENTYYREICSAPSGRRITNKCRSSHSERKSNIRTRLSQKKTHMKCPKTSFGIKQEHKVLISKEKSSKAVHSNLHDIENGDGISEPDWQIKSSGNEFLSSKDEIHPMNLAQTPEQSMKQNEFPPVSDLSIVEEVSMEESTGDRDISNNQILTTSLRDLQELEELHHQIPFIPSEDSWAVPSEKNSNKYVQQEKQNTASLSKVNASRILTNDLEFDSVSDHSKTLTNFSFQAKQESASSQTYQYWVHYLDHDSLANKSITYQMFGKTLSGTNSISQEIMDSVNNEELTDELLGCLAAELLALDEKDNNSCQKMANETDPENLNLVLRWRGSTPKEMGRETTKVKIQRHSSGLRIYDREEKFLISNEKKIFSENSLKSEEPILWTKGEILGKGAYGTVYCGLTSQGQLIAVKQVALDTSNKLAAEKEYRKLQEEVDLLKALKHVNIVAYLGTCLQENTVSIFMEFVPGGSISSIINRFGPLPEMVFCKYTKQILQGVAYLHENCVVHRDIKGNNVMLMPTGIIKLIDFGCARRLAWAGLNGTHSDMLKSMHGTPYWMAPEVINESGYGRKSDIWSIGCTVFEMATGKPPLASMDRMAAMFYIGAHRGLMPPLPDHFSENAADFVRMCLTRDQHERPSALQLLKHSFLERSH

382 unique human kinases [3] = target: T3, 382 unique human kinases (Homo sapiens, UniProt P51955); conditions: NEK2, [ATP] 10 µM, compound 10 uM; for remaining activity at 10 µM: read-out: % Enzyme Activity (relative to DMSO controls)
T3 construct: purchased Reaction Biology (HotSpot contract assay)
T3 sequence (P51955 1-445): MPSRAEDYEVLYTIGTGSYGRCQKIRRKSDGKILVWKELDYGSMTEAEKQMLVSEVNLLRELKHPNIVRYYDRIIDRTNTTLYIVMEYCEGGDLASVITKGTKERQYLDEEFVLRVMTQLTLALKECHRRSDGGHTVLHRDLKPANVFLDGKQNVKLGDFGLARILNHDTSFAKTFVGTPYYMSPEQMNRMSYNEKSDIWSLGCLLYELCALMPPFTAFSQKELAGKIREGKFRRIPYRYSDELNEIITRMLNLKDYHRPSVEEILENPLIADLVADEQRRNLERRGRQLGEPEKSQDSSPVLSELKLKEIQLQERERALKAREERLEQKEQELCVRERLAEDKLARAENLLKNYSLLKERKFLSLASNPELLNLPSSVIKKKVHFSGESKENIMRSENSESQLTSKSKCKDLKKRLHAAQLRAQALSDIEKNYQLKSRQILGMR

382 unique human kinases [4] = target: T4, 382 unique human kinases (Homo sapiens, UniProt P00533, DEL747-749); conditions: EGFR (d747-749), 10 uM; for remaining activity at 10 µM: read-out: % Enzyme Activity (relative to DMSO controls)
T4 construct: purchased Reaction Biology (HotSpot contract assay)

382 unique human kinases [5] = target: T5, 382 unique human kinases (Homo sapiens, UniProt Q9UQB9); conditions: Aurora C, 10 uM; for remaining activity at 10 µM: read-out: % Enzyme Activity (relative to DMSO controls)
T5 construct: purchased Reaction Biology (HotSpot contract assay)
T5 sequence (Q9UQB9 1-309): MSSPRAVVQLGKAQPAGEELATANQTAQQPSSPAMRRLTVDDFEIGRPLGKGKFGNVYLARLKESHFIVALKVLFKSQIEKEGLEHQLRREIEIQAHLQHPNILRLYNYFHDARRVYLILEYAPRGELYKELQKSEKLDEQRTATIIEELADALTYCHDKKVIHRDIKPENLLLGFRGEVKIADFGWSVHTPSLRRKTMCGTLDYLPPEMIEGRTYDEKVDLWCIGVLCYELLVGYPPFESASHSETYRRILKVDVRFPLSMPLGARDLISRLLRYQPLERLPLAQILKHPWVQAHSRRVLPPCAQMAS

382 unique human kinases [6] = target: T6, 382 unique human kinases (Homo sapiens, UniProt Q08345); conditions: DDR1, [ATP] 100 µM
T6 construct: purchased Reaction Biology (HotSpot contract assay)
T6 sequence (Q08345 19-913): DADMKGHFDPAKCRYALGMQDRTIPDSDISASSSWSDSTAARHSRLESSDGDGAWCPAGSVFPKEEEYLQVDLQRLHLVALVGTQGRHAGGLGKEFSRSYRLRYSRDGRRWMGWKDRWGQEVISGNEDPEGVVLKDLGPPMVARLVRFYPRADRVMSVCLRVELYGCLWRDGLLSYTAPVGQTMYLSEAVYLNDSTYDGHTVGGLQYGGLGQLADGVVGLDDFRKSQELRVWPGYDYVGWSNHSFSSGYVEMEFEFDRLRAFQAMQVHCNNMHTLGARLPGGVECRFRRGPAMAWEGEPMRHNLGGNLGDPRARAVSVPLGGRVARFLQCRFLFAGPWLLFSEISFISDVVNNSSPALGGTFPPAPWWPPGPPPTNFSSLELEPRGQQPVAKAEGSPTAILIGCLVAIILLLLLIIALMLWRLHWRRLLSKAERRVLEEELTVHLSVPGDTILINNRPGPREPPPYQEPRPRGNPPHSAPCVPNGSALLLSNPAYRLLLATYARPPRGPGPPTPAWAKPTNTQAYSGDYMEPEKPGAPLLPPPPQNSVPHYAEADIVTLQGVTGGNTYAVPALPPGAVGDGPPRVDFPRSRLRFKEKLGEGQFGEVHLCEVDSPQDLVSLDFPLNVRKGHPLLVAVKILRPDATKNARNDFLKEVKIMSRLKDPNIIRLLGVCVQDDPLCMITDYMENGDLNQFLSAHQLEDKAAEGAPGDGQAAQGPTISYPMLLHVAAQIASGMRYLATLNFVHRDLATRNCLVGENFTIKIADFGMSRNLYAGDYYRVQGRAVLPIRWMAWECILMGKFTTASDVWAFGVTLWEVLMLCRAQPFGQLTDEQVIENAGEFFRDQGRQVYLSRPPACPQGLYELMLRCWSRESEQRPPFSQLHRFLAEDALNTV

382 unique human kinases [7] = target: T7, 382 unique human kinases (Homo sapiens, UniProt Q9UEE5); conditions: DRAK1/STK17A, 10 uM; for remaining activity at 10 µM: read-out: % Enzyme Activity (relative to DMSO controls)
T7 construct: purchased Reaction Biology (HotSpot contract assay)
T7 sequence (Q9UEE5 1-414): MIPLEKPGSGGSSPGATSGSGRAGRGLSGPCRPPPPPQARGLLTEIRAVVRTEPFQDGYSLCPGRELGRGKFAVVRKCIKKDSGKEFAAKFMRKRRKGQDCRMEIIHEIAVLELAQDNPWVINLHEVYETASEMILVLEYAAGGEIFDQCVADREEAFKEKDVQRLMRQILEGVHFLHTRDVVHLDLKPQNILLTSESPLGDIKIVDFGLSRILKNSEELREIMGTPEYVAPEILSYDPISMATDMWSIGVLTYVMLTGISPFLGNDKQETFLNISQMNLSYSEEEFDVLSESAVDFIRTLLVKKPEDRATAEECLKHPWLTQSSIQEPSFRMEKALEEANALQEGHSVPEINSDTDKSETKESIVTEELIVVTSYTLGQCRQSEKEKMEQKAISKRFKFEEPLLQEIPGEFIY

[8] = compound 10 uM, read-out: % Enzyme Activity (relative to DMSO controls)

SMILES	remaining activity at 10 µM (382 unique human kinases [1])	remaining activity at 10 µM (382 unique human kinases [2])	remaining activity at 10 µM (382 unique human kinases [3])	remaining activity at 10 µM (382 unique human kinases [4])	remaining activity at 10 µM (382 unique human kinases [5])	remaining activity at 1 µM (382 unique human kinases [6]; compound 1 uM, read-out: % Enzyme Activity (relative to DMSO controls))	remaining activity at 10 µM (382 unique human kinases [6]; [8])	remaining activity at 10 µM (382 unique human kinases [7])	% Enzyme Activity (relative to DMSO controls) (382 unique human kinases [1])	% Enzyme Activity (relative to DMSO controls) (382 unique human kinases [2])	% Enzyme Activity (relative to DMSO controls) (382 unique human kinases [3])	% Enzyme Activity (relative to DMSO controls) (382 unique human kinases [4])	% Enzyme Activity (relative to DMSO controls) (382 unique human kinases [5])	% Enzyme Activity (relative to DMSO controls) (382 unique human kinases [6]; compound 10 uM)	% Enzyme Activity (relative to DMSO controls) (382 unique human kinases [7])
CC(C)c1cc(-c2n[nH]c(=O)n2-c2ccc3c(ccn3C)c2)c(O)cc1O [Ganetespib (STA9090)]	119%	85.8%													
CC(C)c1cc(-c2n[nH]c(=O)n2-c2ccc3c(ccn3C)c2)c(O)cc1O [Ganetespib]			51.6%	96.5%	92.9%	8.59%	4.12%	106%							
CCNC(=O)c1noc(-c2cc(C(C)C)c(O)cc2O)c1-c1ccc(CN2CCOCC2)cc1 [Luminespib (AUY-922)]	105%	88.7%							102.37%	85.23%					
CCNC(=O)c1noc(-c2cc(C(C)C)c(O)cc2O)c1-c1ccc(CN2CCOCC2)cc1 [Luminespib]			103%	99.3%	96%		85.9%	99.9%			101.57%	98.26%	94.32%	84.86%	99.90%
